The supplement of paper PMC10331698
± gives the standard deviation of the averaged measurements.

Experiments:
Test in all cases: level (log10 ratio to DMSO vehicle control); higher = higher biomarker level / cell amount than vehicle control
Settings in all cases: in DMSO
[1] = compound: CCN(CCO)S(=O)(=O)C(F)(F)C(F)(F)C(F)(F)C(F)(F)C(F)(F)C(F)(F)C(F)(F)C(F)(F)F [N-Ethyl-N-(2-hydroxyethyl)perfluorooctanesulfonamide]
Method: (§1)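 BioMAP Diversity Plus panel of 12 human primary cell co-culture systems (3C, 4H, LPS, SAg, BT, BF4T, BE3C, CASM3C, HDF3CGF, KF3CT, MyoF, Mphg). Compounds were added 1 h before stimulation and left for 24 h (MyoF 48 h; BT 72 h for soluble read-outs or 6 d for IgG). Biomarkers were read by ELISA, cytotoxicity by SRB, PBMC viability and proliferation by Alamar Blue. Each well value was divided by the mean of 8 DMSO control wells on the same plate and log10 transformed; duplicate blinded samples were tested at 4 concentrations.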

Heptafluorobutyramide = compound: NC(=O)C(F)(F)C(F)(F)C(F)(F)F [Heptafluorobutyramide]
Method: as §1

Perfluoropentanoic acid = compound: O=C(O)C(F)(F)C(F)(F)C(F)(F)C(F)(F)F [Perfluoropentanoic acid]
Method: as §1

[2] = compound: O=C(O)C(F)(F)C(F)(F)C(F)(F)OC(F)(C(F)(F)F)C(F)(F)F [Perfluoro-4-isopropoxybutanoic acid]
Method: as §1

[3] = compound: O=C(O)C(F)(F)OC(F)(F)C(F)(F)OC(F)(F)F [Perfluoro-3,6-dioxaheptanoic acid]
Method: as §1

[4] = compound: O=C(O)C(F)(F)C(F)(F)OC(F)(F)F [Perfluoro-3-methoxypropanoic acid]
Method: as §1

[5] = compound: FC(F)(F)C(F)(F)C(F)(F)C(F)(F)C(F)(F)C(F)(F)C(F)(F)C(F)(F)CCS [2-(Perfluorooctyl)ethanthiol]
Method: as §1

Test System	level (log10) ([1]; 6700 nM)	level (log10) ([1]; 20000 nM)	level (log10) (Heptafluorobutyramide; 6700 nM)	level (log10) (Heptafluorobutyramide; 20000 nM)	level (log10) (Heptafluorobutyramide; 60000 nM)	level (log10) (Perfluoropentanoic acid; 6700 nM)	level (log10) (Perfluoropentanoic acid; 20000 nM)	level (log10) (Perfluoropentanoic acid; 60000 nM)	level (log10) ([2]; 6700 nM)	level (log10) ([2]; 20000 nM)	level (log10) ([2]; 60000 nM)	level (log10) ([3]; 6700 nM)	level (log10) ([3]; 20000 nM)	level (log10) ([3]; 60000 nM)	level (log10) ([4]; 6700 nM)	level (log10) ([4]; 20000 nM)	level (log10) ([4]; 60000 nM)	level (log10) ([5]; 6700 nM)	level (log10) ([5]; 20000 nM)
3C:CD87/uPAR	-0.047 ± 0.027	-0.124 ± 0.046	-0.014 ± 0.082	-0.0435 ± 0.07	-0.0375 ± 0.066	-0.003 ± 0.021	-0.0045 ± 0.021	-0.0105 ± 0.015	-0.001 ± 0.04	-0.009 ± 0.041	-0.023 ± 0.033	-0.0205 ± 0.00071	-0.0015 ± 0.019	-0.015 ± 0.028	-0.016 ± 0.05	-0.021 ± 0.013	0.021 ± 0.021	-0.0175 ± 0.0021	-0.0215 ± 0.0035
3C:CXCL8/IL-8	0.02 ± 0.044	-0.0985 ± 0.1	0.008 ± 0.0071	-0.0035 ± 0.016	0.0105 ± 0.011	-0.0065 ± 0.0092	-0.005 ± 0.027	0.03 ± 0.079	-0.0055 ± 0.015	0.007 ± 0.013	0.043 ± 0.034	0.0235 ± 0.012	0.002 ± 0.035	0.0825 ± 0.074	-0.017 ± 0.051	-0.0255 ± 0.021	0.005 ± 0.037	0.002 ± 0.018	0.044 ± 0.028
3C:CXCL9/MIG	-0.013 ± 0.0085	-0.006 ± 0.0085	-0.004 ± 0.016	-0.0115 ± 0.0064	-0.0065 ± 0.0078	-0.0085 ± 0.018	-0.0125 ± 0.03	0.0095 ± 0.028	-0.0015 ± 0.0078	-0.0085 ± 0.0021	0.0105 ± 0.0035	-0.012 ± 0.0042	-0.0005 ± 0.019	0.0065 ± 0.005	0.0025 ± 0.0021	-0.0065 ± 0.0078	0.0115 ± 0.00071	0.002	0.0115 ± 0.005
3C:HLA-DR	0.013 ± 0.025	-0.0625 ± 0.016	0.005 ± 0.0099	0.008 ± 0.0057	-0.007 ± 0.0028	-0.0075 ± 0.0035	0.0015 ± 0.021	0.018 ± 0.037	0.0145 ± 0.044	-0.0035 ± 0.005	0.002 ± 0.016	-0.035 ± 0.033	-0.0075 ± 0.0078	-0.0115 ± 0.021	-0.0095 ± 0.015	-0.043 ± 0.0085	-0.014 ± 0.0028	-0.015 ± 0.018	-0.0235 ± 0.0078
3C:Proliferation	-0.267 ± 0.087	-0.947 ± 0.17	0.006 ± 0.04	0.003 ± 0.051	-0.006 ± 0.045	-0.029 ± 0.028	0.011	0.0015 ± 0.046	-0.0195 ± 0.05	0.002 ± 0.098	-0.0325 ± 0.046	-0.0305 ± 0.025	-0.031 ± 0.05	-0.0205 ± 0.0064	-0.0295 ± 0.056	-0.023 ± 0.03	-0.0135 ± 0.037	0.0355 ± 0.029	-0.016 ± 0.013
3C:SRB	-0.0815 ± 0.021	-0.217 ± 0.011	-0.0235 ± 0.04	-0.0095 ± 0.0078	-0.007 ± 0.024	-0.0115 ± 0.013	0.001 ± 0.014	0.007 ± 0.018	0.0005 ± 0.011	-0.0075 ± 0.015	-0.017 ± 0.024	-0.01 ± 0.0071	-0.022 ± 0.0057	-0.008 ± 0.0042	0.001 ± 0.0014	0.0005 ± 0.019	-0.004 ± 0.017	0.005 ± 0.0071	-0.013 ± 0.016
4H:CCL2/MCP-1	-0.007 ± 0.0099	-0.159 ± 0.044	-0.026 ± 0.013	-0.0325 ± 0.022	0.004 ± 0.095	-0.0085 ± 0.052	-0.047 ± 0.0042	0.014 ± 0.052	0	-0.0255 ± 0.005	0.0155 ± 0.059	-0.0265 ± 0.037	-0.0345 ± 0.018	0.031 ± 0.0085	-0.0045 ± 0.039	-0.0095 ± 0.0092	0.003	-0.02 ± 0.017	0.0395 ± 0.035
4H:CCL26/Eotaxin-3	0.077 ± 0.031	-0.143 ± 0.14	0.0315 ± 0.021	0.0345 ± 0.0035	0.0185 ± 0.019	0.0015 ± 0.0035	-0.0185 ± 0.022	0.004 ± 0.05	0.0175 ± 0.042	-0.023 ± 0.0057	-0.0135 ± 0.00071	-0.0115 ± 0.016	0.0075 ± 0.0064	-0.024 ± 0.03	-0.013 ± 0.013	-0.0085 ± 0.019	0.021 ± 0.0099	0.008 ± 0.017	-0.0145 ± 0.0064
4H:CD62P/P-selectin	-0.079 ± 0.0014	-0.142 ± 0.044	0.002 ± 0.0099	0.049 ± 0.034	0.015 ± 0.02	-0.0025 ± 0.067	-0.023 ± 0.03	-0.0285 ± 0.043	0.001 ± 0.021	0.0165 ± 0.012	0.048 ± 0.033	-0.0245 ± 0.061	0.0025 ± 0.0092	-0.0185 ± 0.018	-0.004 ± 0.0057	0.005 ± 0.011	0.0065 ± 0.029	0.019 ± 0.0071	-0.017
4H:CD87/uPAR	-0.037 ± 0.037	-0.088 ± 0.024	0.048 ± 0.014	0.031 ± 0.0014	0.0315 ± 0.0092	-0.0435 ± 0.035	-0.0355 ± 0.005	-0.055 ± 0.0028	-0.004 ± 0.03	-0.013 ± 0.0028	-0.0075 ± 0.0035	-0.0205 ± 0.023	-0.019 ± 0.011	-0.019 ± 0.018	-0.031 ± 0.044	-0.0165 ± 0.047	-0.0045 ± 0.029	-0.0055 ± 0.0021	-0.0165 ± 0.0021
4H:CD106/VCAM-1	0.116 ± 0.021	0.0765 ± 0.0021	-0.004 ± 0.021	-0.014 ± 0.025	-0.0155 ± 0.015	0.002 ± 0.038	0.0125 ± 0.0021	0.024 ± 0.013	0.0075 ± 0.011	-0.019 ± 0.0028	-0.011 ± 0.025	-0.0245 ± 0.0092	0.001 ± 0.034	-0.0215 ± 0.021	0.0005 ± 0.016	-0.005 ± 0.0085	0.007 ± 0.0057	-0.0055 ± 0.005	-0.0025 ± 0.012
4H:SRB	-0.016 ± 0.0057	-0.0605 ± 0.029	-0.0275 ± 0.026	-0.0165 ± 0.0035	-0.006 ± 0.018	-0.0125 ± 0.00071	-0.0065 ± 0.016	-0.0025 ± 0.021	-0.0085 ± 0.021	-0.008 ± 0.023	-0.0275 ± 0.019	0.009 ± 0.0042	0.0085 ± 0.0035	0 ± 0.0042	-0.013 ± 0.0071	-0.004 ± 0.0071	0.0015 ± 0.033	0.0085 ± 0.011	-0.003 ± 0.0057
4H:VEGFR2	0.0365 ± 0.0092	0.002 ± 0.0042	0.018 ± 0.024	0.01	0.0075 ± 0.029	0.0065 ± 0.056	0.0025 ± 0.013	0.008 ± 0.025	-0.0575 ± 0.015	-0.056 ± 0.037	-0.0215 ± 0.088	-0.035 ± 0.0099	-0.009 ± 0.048	-0.013 ± 0.0071	-0.085 ± 0.041	-0.0895 ± 0.05	-0.009 ± 0.093	-0.0145 ± 0.026	0.0405 ± 0.074
